From patent publication US8673854B2, “Prophylactic agent for heart failure” (Calpis Co., Ltd., priority 2007, dated 2014)

Assays:
Format in all cases: in vivo, male Wistar rats
[1] = tested on: rat right ventricle wall thickening; test: Test 2: effect to suppress right ventricle wall thickening in rats administered with L-NAME; conditions: compared with L-NAME alone; drinking water with L-NAME 1 g/L plus VPP 0.3 g/L or Enalapril 0.5 mg/L, ad libitum for eight weeks; FIG. 2
[2] = tested on: rat left ventricle wall thickening; test: Test 1: effect to suppress left ventricle wall thickening in rats administered with L-NAME; conditions: compared with L-NAME alone; drinking water with L-NAME 1 g/L plus VPP 0.3 g/L or Enalapril 0.5 mg/L, ad libitum for eight weeks; FIG. 1
Protocol: The tripeptide Val Pro Pro (VPP) was tested for the effect of suppressing the thickening of the left ventricle. The test was carried out using three groups of male Wistar rats of seven weeks old (Japan SLC, Inc.), each of which group consisted of 9 to 12 rats. […] The dose of Enalapril was determined such that its activity to inhibit ACE was equivalent to VPP's.
(§1) The rats were sacrificed by exsanguination under diethylether anesthesia. […] The sliced thin sections were stained with hematoxylin and eosin and the thickness of the left ventricle wall was measured. As for the measurement of the thickness of the ventricle wall, the thickness of a plural of the points per one section, each of which point was considered to have an average thickness, was actually measured with an ocular micrometer under a microscope. The average thickness was defined as the measured value of the section and subjected to statistical analysis. […]

[3] = tested on: rat left ventricle wall thickening; test: Test 3: effect to suppress left ventricle wall thickening in rats administered with L-NAME; conditions: compared with L-NAME alone; drinking water with L-NAME 1 g/L plus IPP 0.3 g/L or Enalapril 0.5 mg/L, ad libitum for eight weeks; FIG. 3
Protocol: (§2) The tripeptide Ile Pro Pro (IPP) was also tested for the suppressive effect against the thickening of the ventricle wall. The test was carried out using three groups of male Wistar rats of seven weeks old (Japan SLC, Inc.), each of which group consist of 9 to 11 rats. After acclimation for a week, the animals received: water with L-NAME (manufactured by Sigma) being dissolved at a concentration of 1 g/L; water with L-NAME and IPP being dissolved at a concentration of 1 g/L and 0.3 g/L respectively; or water with L-NAME and angiotensin converting enzyme (ACE) inhibitor, Enalapril at a concentration of 1 g/L and 0.5 mg/L respectively, ad libitum for eight weeks. The dose of Enalapril was determined such that its activity to inhibit ACE was equivalent to the activity of IPP to inhibit ACE.
as §1, with “for” for “per”

[4] = tested on: rat right ventricle wall thickening; test: Test 4: effect to suppress right ventricle wall thickening in rats administered with L-NAME; conditions: L-NAME 1 g/L plus IPP 0.3 g/L or Enalapril 0.5 mg/L in water, eight weeks; for Normal (right ventricle wall equal to or smaller than reference value) / Thickening Positive (right ventricle wall thicker than reference value of rats without L-NAME): likelihood-ratio test, IPP group p < 0.01
Protocol: In order also to check the effect of the tripeptide Ile Pro Pro (IPP) to suppress the thickening of the right ventricle wall, a test was carried out in the same manner as in Test 3, and measurement and evaluation were made.
as §2, with “The” for “The tripeptide Ile Pro Pro (IPP) was also tested for the suppressive effect against the thickening of the ventricle wall. The”, “12” for “11”, “animal” for “animals”
The rats were sacrificed by exsanguination under diethylether anesthesia. The heart was enucleated and then fixed with 10% neutral buffered formalin solution. Annularly-shaped tissue samples were prepared from the fixed heart by horizontally excising the lower part of the atria such that the right ventricle, septum, left ventricle, and coronary artery were included. The specimen were embedded in paraffin and cut into thin sections with a thickness of 3.0 to 3.5 μm using a microtome. Two to five sections per rat were prepared. Slices of the thin sections were stained with hematoxylin and eosin and the thickness of the right ventricle wall was measured. As for the measurement of the thickness of the ventricle wall, the thickness of a plural of the points for one section, each of which point was considered to have an average thickness, was actually measured with an ocular micrometer under a microscope. The average thickness was defined as the measured value of the section and the thickness of the ventricle wall of each individual was determined. The measurement and evaluation of the thickness was carried out by a pathologist who was not informed of the name of each sample.
The evaluation of the thickening of the ventricle wall involved the measurement of the thickness of the ventricle wall of six rats of the same age in weeks, which rats were fed with general tap water with no L-NAME being added. The average of those was defined as a reference value. In cases where the thickness of its ventricle wall was larger than the reference value, a rat was defined as one with the thickening, whereas in cases where the thickness of its ventricle wall was equal to or smaller than the reference value, a rat was considered to be normal. Using the number of the rats with the thickening and the normal rats, comparisons by likelihood-ratio test were made.

[5] = tested on: rat heart septal wall thickening; test: Test 5: effect to suppress heart septal wall thickening in rats administered with L-NAME; conditions: compared with L-NAME alone; drinking water with L-NAME 1 g/L plus IPP 0.3 g/L or Enalapril 0.5 mg/L, ad libitum for eight weeks; FIG. 4

| Compound | thickness of the right ventricle wall [1] | thickness of the left ventricle wall [2] | thickness of the left ventricle wall [3] | suppression of the thickening of the right ventricle wall (result in words) [4] | Normal (right ventricle wall equal to or smaller than reference value) [4] [rats] | Thickening Positive (right ventricle wall thicker than reference value of rats without L-NAME) [4] | thickness of the heart septal wall [5] |
| --- | --- | --- | --- | --- | --- | --- | --- |
| Val Pro Pro [VPP] | showed a decrease in the thickness of the right ventricle wall | showed a decrease in the thickness of the left ventricle wall | – | – | – | – | – |
| CCOC(=O)[C@H](CCc1ccccc1)N[C@@H](C)C(=O)N1CCC[C@H]1C(=O)O [Enalapril] | did not show such an effect | did not exhibit the effect | did not exhibit such an effect | did not exhibit such an effect | 8 | 1 rat^ rats | did not exhibit the effect |
| Ile Pro Pro [IPP] | – | – | showed a decrease in the thickness of the left ventricle wall | suppressed the thickening of the right ventricle wall | 9 | 0 rats | showed a decrease in the thickness of the heart septal wall |
